# “And” between values parts separate entries of the source, which are not always exact repeats. Identical values can stand only once.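 Five concentrations, 48 hours, 96-well plates. Abbreviation: GI50, concentration required for 50% inhibition of growth. TGI denotes the concentration required for complete inhibition of growth.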
# Assays:
# Assay in all cases: NCI tumour cell line growth inhibition, 48 h
# [1] = test system: SF-268 CNS
# [2] = test system: 786-0 renal
# [3] = test system: CAKI-1 renal
# [4] = test system: NCI-H23 lung
# [5] = test system: KM12 colon
# [6] = test system: SNB-75 CNS
# [7] = test system: HT29 colon
# [8] = test system: HCC-2998 colon
# [9] = test system: HS 578T breast
# [10] = test system: MDA-MB-231 breast
# [11] = test system: BT-549 breast
smiles,measurement,setting,value
O=[N+]([O-])c1ccc(NC2OCC(O)C(O)C2O)cc1 (stereo unspecified),TGI,[1],> 100 µM
same,TGI,[2],> 100 µM
same,TGI,[3],> 100 µM
same,TGI,[4],> 100 µM
same,TGI,[5],> 100 µM
same,TGI,[6],> 100 µM
same,TGI,[7],> 100 µM
same,TGI,[8],> 100 µM
Cc1ccc(/C=C2\NC(=S)N(CN3CCOCC3)C2=O)cc1,TGI,[9],> 100 µM
same,TGI,[1],> 100 µM
same,TGI,[2],> 100 µM
same,TGI,[10],> 100 µM
same,TGI,[4],> 100 µM
same,TGI,[5],> 100 µM
same,TGI,[6],> 100 µM
same,TGI,[7],> 100 µM
Nc1nc2c(ncn2CCOC(c2ccccc2)P(=O)(O)O)c(=O)[nH]1 (stereo unspecified),TGI,[1],> 100 µM
same,TGI,[2],> 100 µM
same,TGI,[3],> 100 µM
same,TGI,[4],> 100 µM
same,TGI,[5],> 100 µM
same,TGI,[6],> 100 µM
same,TGI,[7],> 100 µM
same,TGI,[8],> 100 µM
C=C(C)CCC1CCCCC(CN(C)C)C1=O (stereo unspecified),TGI,[9],> 100 µM
same,TGI,[1],> 100 µM
same,TGI,[2],> 100 µM
same,TGI,[10],> 100 µM
same,TGI,[3],> 100 µM
same,TGI,[4],> 100 µM
same,TGI,[5],> 100 µM
same,TGI,[6],> 100 µM
same,TGI,[7],> 100 µM
COc1ccc(CNc2nc(NCc3ccc(OC)cc3)nc(Nc3ccccc3)n2)cc1,TGI,[9],> 100 µM
same,TGI,[1],> 100 µM
same,TGI,[2],> 100 µM
same,TGI,[10],> 100 µM
same,TGI,[3],10.4 µM
same,TGI,[4],78.5 µM
same,TGI,[5],35.3 µM
same,TGI,[6],> 100 µM
same,TGI,[7],4.1 µM
same,TGI,[11],> 100 µM
COC1(OC)N=C(N)C2(C#N)C(C)CC(=O)N(N(C)C)C12C#N (stereo unspecified),TGI,[9],> 100 µM
same,TGI,[1],> 100 µM
same,TGI,[2],> 100 µM
same,TGI,[10],> 100 µM
same,TGI,[3],> 100 µM
same,TGI,[4],> 100 µM
same,TGI,[5],> 100 µM
same,TGI,[6],> 100 µM
same,TGI,[7],> 100 µM
same,TGI,[8],> 100 µM
O=[N+]([O-])c1ccc(Cl)cc1C1ON=C(c2ccccc2)N1C12CC3CC(CC(C3)C1)C2 (stereo unspecified),TGI,[9],> 100 µM
same,TGI,[1],> 100 µM
same,TGI,[2],> 100 µM
same,TGI,[10],> 100 µM
same,TGI,[3],> 100 µM
same,TGI,[4],> 100 µM
same,TGI,[6],> 100 µM
same,TGI,[7],> 100 µM
same,TGI,[8],> 100 µM
Cc1cc2c(c3oc(C(O)(CO)C4CO4)cc(=O)c13)C(=O)c1c(O)cccc1C2=O (stereo unspecified),GI50,[9],0.000702 µM
same,TGI,[9],0.0078 µM
same,TGI,[10],0.00843 µM and 0.00411 µM
same,TGI,[3],0.0036 µM
same,TGI,[6],0.00395 µM and 0.000596 µM
same,TGI,[11],0.000438 µM
same,GI50,[8],0.000169 µM
same,TGI,[8],0.00727 µM and 0.00365 µM and 0.0112 µM
OCCSCCCSCCO,TGI,[1],> 100 µM
same,TGI,[2],> 100 µM
same,TGI,[10],> 100 µM
same,TGI,[4],> 100 µM
same,TGI,[5],> 100 µM
same,TGI,[6],> 100 µM
same,TGI,[7],> 100 µM
same,TGI,[11],> 100 µM
same,TGI,[8],> 100 µM
N#CCCC(CC#N)N1CCN(CCO)CC1 (stereo unspecified),TGI,[9],> 100 µM
same,TGI,[1],> 100 µM
same,TGI,[2],> 100 µM
same,TGI,[10],> 100 µM
same,TGI,[4],> 100 µM
same,TGI,[5],> 100 µM
same,TGI,[6],> 100 µM
same,TGI,[7],> 100 µM
same,TGI,[8],> 100 µM
Cn1c(C(C#N)c2cc(Cl)ncn2)nc2ccccc21 (stereo unspecified),TGI,[1],> 100 µM
same,TGI,[2],> 100 µM
same,TGI,[10],> 100 µM
same,TGI,[3],> 100 µM
same,TGI,[4],> 100 µM
same,TGI,[5],> 100 µM
same,TGI,[6],> 100 µM
same,TGI,[7],> 100 µM
same,TGI,[11],> 100 µM
CCOC(=O)CCC(C(=O)OCC)n1nc2ccc(Nc3c(C)[n+]([O-])c4cc(Cl)ccc4[n+]3[O-])cc2n1 (stereo unspecified),TGI,[9],> 100 µM
same,TGI,[1],> 100 µM
same,TGI,[2],> 100 µM
same,TGI,[3],> 100 µM
same,TGI,[4],> 100 µM
same,TGI,[5],> 100 µM
same,TGI,[6],> 100 µM
same,TGI,[7],> 100 µM
same,TGI,[11],> 100 µM
CO/N=C1\CCC2(O)C3Cc4ccc(O)c5c4C2(CCN3CC2CC2)[C@H]1O5 (stereo partly specified),TGI,[9],> 100 µM
same,TGI,[1],> 100 µM
same,TGI,[2],> 100 µM
same,TGI,[10],> 100 µM
same,TGI,[3],> 100 µM
same,TGI,[4],> 100 µM
same,TGI,[5],> 100 µM
same,TGI,[7],> 100 µM
same,TGI,[11],> 100 µM
O=c1c2cc(Br)ccc2oc2nc3n(c(=O)c12)CCCS3,TGI,[9],> 100 µM
same,TGI,[1],> 100 µM
same,TGI,[2],> 100 µM
same,TGI,[10],> 100 µM
same,TGI,[3],> 100 µM
same,TGI,[4],> 100 µM
same,TGI,[5],> 100 µM
same,TGI,[6],> 100 µM
same,TGI,[11],> 100 µM
same,TGI,[8],> 100 µM
CC1=C(C2=C(C)C(=O)C(=O)c3cc(C)ccc32)c2ccc(C)cc2C(=O)C1=O,TGI,[9],0.863 µM
same,TGI,[2],1.45 µM
same,TGI,[10],0.91 µM
same,TGI,[3],0.328 µM
same,TGI,[4],0.442 µM
same,TGI,[5],0.447 µM
same,TGI,[6],0.868 µM
same,TGI,[7],0.705 µM
same,TGI,[11],0.374 µM
same,TGI,[8],0.298 µM
CC(SC(=S)N1CCCCC1)C(=O)Nc1nnc(-c2ccc(Cl)cc2)o1 (stereo unspecified),TGI,[9],> 100 µM
same,TGI,[1],81.1 µM
same,TGI,[2],47.5 µM
same,TGI,[10],> 100 µM
same,TGI,[4],> 100 µM
same,TGI,[6],> 100 µM
same,TGI,[7],54.6 µM
same,TGI,[11],> 100 µM
same,TGI,[8],> 100 µM
COc1cccc(NCC(=O)Nn2c(-c3ccccc3)nc3ccccc3c2=O)c1,TGI,[9],> 100 µM
same,TGI,[1],> 100 µM
same,TGI,[2],> 100 µM
same,TGI,[10],> 100 µM
same,TGI,[4],> 100 µM
same,TGI,[5],> 100 µM
same,TGI,[6],> 100 µM
same,TGI,[7],> 100 µM
same,TGI,[11],> 100 µM
same,TGI,[8],> 100 µM
Cc1nc2c(nc1C)-c1c(c3c(n1Cc1ccccc1)C(=O)CCC3)C(=O)C2=O,TGI,[9],7.99 µM
same,TGI,[2],> 100 µM
same,TGI,[10],> 100 µM
same,TGI,[3],5.32 µM
same,TGI,[4],> 100 µM
same,TGI,[5],4.64 µM
same,TGI,[6],6.56 µM
same,TGI,[7],23.9 µM
same,TGI,[11],5.84 µM
same,TGI,[8],5.49 µM
Cc1cccc2sc(NC(=O)c3cc([N+](=O)[O-])ccc3Cl)nc12,TGI,[1],> 33.7 µM
same,TGI,[2],4.67 µM
same,TGI,[10],> 100 µM
same,TGI,[3],> 44.8 µM
same,TGI,[4],19.9 µM
same,TGI,[5],12.1 µM
same,TGI,[6],> 21.1 µM
same,TGI,[7],4.48 µM
same,TGI,[11],9.5 µM
same,TGI,[8],40.2 µM
CN1CCN(CC(=O)Nc2ccc3ncnc(Nc4ccc(Oc5cccc(C(F)(F)F)c5)c(Cl)c4)c3c2)CC1,GI50,[1],1.49 µM
same,TGI,[1],3.11 µM
same,GI50,[10],1.78 µM
same,TGI,[10],3.3 µM
same,GI50,[3],1.24 µM
same,TGI,[3],2.49 µM
same,GI50,[5],1.79 µM
same,TGI,[5],3.3 µM
same,GI50,[6],1.35 µM
same,TGI,[6],2.67 µM
same,GI50,[11],1.47 µM
same,TGI,[11],2.85 µM
COc1ccc(/C=C2\CN(C)CC3=C2OC(N)=C(C#N)C3c2ccc(OC)cc2)cc1 (stereo unspecified),TGI,[9],> 100 µM
same,TGI,[1],> 100 µM
same,TGI,[2],> 100 µM
same,TGI,[10],> 100 µM
same,TGI,[3],> 100 µM
same,TGI,[4],> 100 µM
same,TGI,[5],> 100 µM
same,TGI,[7],> 100 µM
same,TGI,[11],> 100 µM
same,TGI,[8],> 90.5 µM
Cc1ccc(C(=O)CC(Cl)=C(Cl)Cl)cc1,TGI,[9],> 100 µM
same,TGI,[1],> 100 µM
same,TGI,[2],> 100 µM
same,TGI,[10],> 100 µM
same,TGI,[3],> 100 µM
same,TGI,[4],> 100 µM
same,TGI,[5],> 100 µM
same,TGI,[6],> 100 µM
same,TGI,[7],> 100 µM
same,TGI,[11],> 100 µM
